Experimental data as given in patent US20250140406A1, “CLASSIFYING TUMORS AND PREDICTING RESPONSIVENESS” (Oncocyte Corporation, priority 2022, published 2025).
Like-named read-outs stand apart in the source and are kept apart here.

How the values were obtained:
Assay type in all cases: cell-based
[1] = system: cancer cell lines classified IM, MSL, M; assay: PRISM screen compound sensitivity correlated with IM, MSL and M subtype of cell lines (101 gene signature); conditions: for TNBCType train: 101 gene signature
cancer cell lines = assay: Correlation of gene expression with PRISM compound sensitivity across cell lines (gene:compound correlate pairs)
Protocol: This list of genes (based upon gene expression and gene dependency) was analyzed by Pearson correlation with the compound sensitivity data across the training cell lines. Correlation values, p values, q values and local false discovery rates were calculated. This analysis was repeated using the same set of compounds and genes on the test set of cell lines.
A negative correlation means that the importance of the expression of that gene to cell health was linked to increased compound sensitivity. • compound gene dep train pvalue: Measure of significance for this association. • compound gene dep test corr: Correlation of gene dependency with compound sensitivity in the test data set. • TNBCType train: Classification of association of the compound sensitivity with the IM, MSL and M cell line classes in the training data set. • DTIO Corr train: Association of the compound sensitivity with the DetermaIO cell line classes in the training data set. • TNBCType test: Classification of the association of the compound sensitivity with the IM, MSL and M cell line classes in the test data set. • DTIO Corr test: Association of the compound sensitivity with the DetermaIO cell line classes in the test data set.

[2] = system: cancer cell lines, DetermaIO classes; assay: Association of PRISM compound sensitivity with DetermaIO (DTIO) cell line classes
[3] = correlation of PRISM compound sensitivity with IM subtype correlation, test cell set (188 cell lines)
[4] = correlation of PRISM compound sensitivity with M subtype correlation, test cell set (188 cell lines)
[5] = correlation of PRISM compound sensitivity with MSL subtype correlation, test cell set (188 cell lines)
[6] = correlation of PRISM compound sensitivity with DTIO (DetermaIO), test cell set (188 cell lines)
[7] = correlation of PRISM compound sensitivity with DTIO (DetermaIO), training cell set (371 cell lines)
[8] = correlation of compound sensitivity with DetermaIO (DTIO), test set
[9] = correlation of compound sensitivity with DetermaIO (DTIO), training set
[10] = correlation of PRISM compound sensitivity with DTIO, test cell set
[11] = correlation of PRISM compound sensitivity with DTIO, training cell set
[12] = correlation of PRISM compound sensitivity with IM subtype correlation, test cell set
[13] = correlation of PRISM compound sensitivity with M subtype correlation, test cell set
[14] = correlation of PRISM compound sensitivity with MSL subtype correlation, test cell set
[15] = subtype (IM, MSL or M) assigned to the compound by negative correlation of PRISM sensitivity with subtype, training cell set (371 cell lines)
[16] = subtype (IM, MSL or M) with which PRISM compound sensitivity is negatively correlated, training cell set
[17] = subtype (IM, MSL or M) with which compound sensitivity is negatively correlated, training cell set (371 cell lines)

Row | Compound | IM Corr test [1, 3] | M Corr test [1, 4] | MSL Corr test [1, 5] | DTIO Corr test [2, 10] | DTIO Corr train [2, 11] | other results
1 | Cc1cc(CN2CCN(c3c(Br)cnc4nc(-c5ccc(N6CCN(C)CC6)cc5)[nH]c34)CC2)no1 [CCT137690] | −0.03424 | −0.09289 | −0.02426 |  |  | compound gene train corr (cancer cell lines): −0.1607
2 | COc1cc2c(NC3CCN(C(C)C)CC3)nc(N3CCC(F)(F)CC3)nc2cc1OCCCN1CCCC1 [UNC0642] | −0.2049 | 0.1456 | 0.1789 |  |  | DTIO Corr test [2, 6]: −0.1219; DTIO Corr train [2, 7]: −0.0704; DTIO Corr test [2, 8]: −0.1219; DTIO Corr train [2, 9]: −0.0704; compound gene test corr (cancer cell lines): −0.295; compound gene train corr (cancer cell lines): −0.1787
3 | CCOC(=O)c1ncc2[nH]c3ccc(OCc4ccccc4)cc3c2c1COC.Cl [ZK-93423] |  |  |  | 0.1767 | 0.1098 | DTIO Corr test [2, 8]: 0.1767; DTIO Corr train [2, 9]: 0.1098; IM Corr test [1, 12]: 0.2068; M Corr test [1, 13]: −0.1479; MSL Corr test [1, 14]: −0.01274; compound gene test corr (cancer cell lines): −0.2447; compound gene train corr (cancer cell lines): −0.1712
4 | Cc1occc(=O)c1[O-].Cc1occc(=O)c1[O-].[O]=[V+2] [bis(maltolato)oxovanadium(IV)] |  |  |  |  |  | compound gene train corr (cancer cell lines): −0.1081
5 | COC(=O)CC[C@@H]1N=C(c2ccccn2)c2cc(Br)ccc2-n2c(C)cnc21 [remimazolam] | 0.03785 | −0.0431 | −0.1059 |  |  | DTIO Corr test [2, 6]: −0.03395; DTIO Corr train [2, 7]: −0.02892; TNBCType train [1, 15]: MSL
6 | COc1ccc([C@H]2CNC(=O)C2)cc1OC1CCCC1 [rolipram-S(+)] | −0.03939 | −0.06383 | −0.06426 |  |  | DTIO Corr test [2, 6]: −0.07222; DTIO Corr train [2, 7]: −0.1043
7 | C=C1CC[C@H](O)C/C1=C/C=C1\CCC[C@]2(C)[C@@H]([C@H](C)CC[C@@H](O)C(C)(C)O)CC[C@@H]12 [secalciferol] | −0.1254 | 0.07866 | −0.05502 | −0.09515 | −0.06151 | 
8 | C/C(=N\NC(=N)N)c1cc(NC(=O)CCCCCCCCC(=O)Nc2cc(/C(C)=N/NC(=N)N)cc(/C(C)=N/NC(=N)N)c2)cc(/C(C)=N/NC(=N)N)c1 [semapimod] |  |  |  | 0.207 | 0.01264 | IM Corr test [1, 12]: 0.1267; M Corr test [1, 13]: −0.09225; MSL Corr test [1, 14]: −0.0812; TNBCType train [1, 16]: MSL
9 | COc1ccc(-c2cc(=O)c3c(OC)c(OC)c(OC)c(OC)c3o2)cc1 [tangeritin] |  |  |  | −0.01838 | −0.09411 | IM Corr test [1, 12]: −0.06559; M Corr test [1, 13]: 0.04891; MSL Corr test [1, 14]: −0.06252
10 | c1cc2c(cc1C1CCCCC1)c1c3n2CCNC3CCC1 (stereo not shown) [tetrindole] | −0.02376 | 0.06046 | 0.06072 | −0.04907 | −0.09692 | 
11 | CCN=C1N[C@@H]2[C@@H](O)[C@H](O)[C@@H](CO)O[C@@H]2S1 [thiamet-g] |  |  |  | 0.003014 | 0.08206 | IM Corr test [1, 12]: −0.00247; M Corr test [1, 13]: −0.01394; MSL Corr test [1, 14]: −0.01406; TNBCType train [1, 16]: MSL
12 | O=C(NCc1ccccc1)c1csc(Nc2ccncn2)n1 [thiazovivin] | 0.0391 | −0.1082 | −0.2135 | 0.04845 | 0.03374 | TNBCType train [1, 17]: MSL
13 | C[CH2][Hg][S]c1ccccc1C(=O)[O-].[Na+] [thiomersal] | 0.1417 | −0.2551 | −0.1237 |  |  | DTIO Corr test [2, 6]: 0.0287; DTIO Corr train [2, 7]: −0.05708; DTIO Corr test ([2]; correlation of compound sensitivity with DTIO, test set): 0.0287; DTIO Corr train ([2]; correlation of compound sensitivity with DTIO, training set): −0.05708
14 | COc1cc(C[C@@H]2NCCc3cc(O)c(O)cc32)cc(OC)c1OC [trimethoquinol] | −0.06802 | −0.00108 | −0.05303 | −0.05537 | −0.0983 | TNBCType train [1, 17]: MSL
15 | COc1cc2ncnc(Nc3cccc(Cl)c3)c2cc1OC [tyrphostin-AG-1478] | −0.09525 | 0.2259 | 0.3434 |  |  | DTIO Corr test [2, 6]: 0.02894; DTIO Corr train [2, 7]: −0.0761
16 | CN[C@H]1CN(c2ccc3c(=O)c(C(=O)O)cn(-c4nccs4)c3n2)C[C@@H]1OC [voreloxin] |  |  |  | 0.01495 | −0.04486 | IM Corr test [1, 12]: 0.02919; M Corr test [1, 13]: −0.09678; MSL Corr test [1, 14]: −0.06474; TNBCType train [1, 16]: MSL
17 | Cc1nn(C)c2c1C(c1cccc(Cl)c1)=NCCN2 [zometapine] | −0.1347 | 0.04602 | −0.04215 | −0.08271 | 0.09146 | TNBCType train [1, 17]: MSL
18 | PF-477736 | 0.05795 | −0.1644 | −0.1066 | −0.03209 | −0.01779 | 
19 | Ro-25-6981 |  |  |  | −0.1247 | −0.07012 | IM Corr test [1, 12]: −0.1513; M Corr test [1, 13]: 0.04707; MSL Corr test [1, 14]: −0.0147
20 | iodoquinol | 0.03942 | −0.09894 | −0.104 |  |  | DTIO Corr test [2, 6]: 0.03163; DTIO Corr train [2, 7]: −0.06766; TNBCType train [1, 15]: MSL
21 | repsox |  |  |  |  |  | DTIO Corr test [2]: −0.03254; DTIO Corr train [2]: −0.05665; IM Corr test [1]: −0.07924; M Corr test [1]: 0.1062; MSL Corr test [1]: 0.08697
22 | salvianolic-acid-B | 0.001211 | −0.08646 | −0.06128 | 0.002256 | −0.1092 | TNBCType train [1, 17]: MSL
